Test results: patent US12490743B2, “Method for treatment of crops” (Wobelea PTY LTD, priority 2019, dated 2025)
Values joined by “and” are separate entries in the source; they are usually repeats but may differ in a detail not shown here. Equal values may be shown once.

Assays:
[1] = pH of products dissolved in tank water; assay type: physicochemical; conditions: 0.8%; for pH after active added in unamended tank water: tank water pH 6.25
Experimental: The water used throughout the projects is rainwater held in the dark in a plastic tank with stable pH value of 6.25. Controls were set up by replacing actives with tank water only.
Products were dissolved in tank water before application to the agar plants. Tank water (pH 6.25) was adjusted to the respective pH levels prior to adding the actives to determine the change in pH caused by the actives.
Tank water was adjusted to pH 4.0, 5.5, and 7.0 before adding sodium benzoate, sodium metabisulphite and WOB NP1, each at 0.8%.
Tank water was adjusted to pH 7.0, 7.5 and 8.4 before adding sodium benzoate, sodium sulphite and WOB PH1, each at 0.8%.

Botrytis cinerea [2] = test: Preventative activity: pathogen plugs laid on agar containing product; assay type: cell-based; conditions: Example 5; unadjusted water pH; 0.8%; WOB as liquid formulation; 24 hrs
Experimental: (§1) The fungal and bacterial pathogens Erwinia carotovora (bacterial) and Botrytis cinerea (fungal) were cultured on to Nutrient Agar (NA) and potato dextrose agar (PDA), respectively and incubated at ambient temperature until sporulating or well grown.
(§2) Multiple plates of PDA were inoculated with B. cinerea and allowed to sporulate. Multiple plates of NA were inoculated with E. carotovora and allowed to grow into a thick lawn.
(§3) Plates of agar containing each product (Na metabisulphite, Na Benzoate, WOB NP1 of Example 3) and (Na sulphite, Na Benzoate, WOB PH1) at concentrations equivalent to 0.8% concentration were made up and poured into sterile disposal Petri dishes. Three replicates for each product and pH (4.0 and 7.0) were used.
(§4) Sterile agar discs covered with bacterial cells or fungal hyphae and spores were cut from respective plates of B. cinerea and E. carotovora. Three discs were each laid culture surface down onto the amended agar surface, incubated at ambient temperatures (14-25° C.) and observed for inhibition zones at 24 hours, 48 hours and 7 days.
(§5) Water was used unmodified and agars were made up of the 6 products using them at the pH resulting after dissolving to 0.8% concertation. Curative and preventative plates were prepared as described for Example 4 except that pHs were as dissolved (tank water not adjusted prior to dissolving/diluting product).
(§6) The curative and preventative experiments were repeated according to the method of Example 5 using the liquid WOB NP1 and WOB PH 1 formulations and the solid actives sodium metabisulphite, sodium benzoate and sodium sulphite.
(§7) The liquid WOB formulations were divided into 3 aliquots; one was used immediately—time zero; one stored at ambient temperate (15-27° C.) for one week and experiments repeated; one kept refrigerated (5° C.) for one week and experiments repeated.

Erwinia carotovora [3] = test: as above; assay type: cell-based; conditions: Example 5; unadjusted water pH; 0.8%; WOB as liquid formulation; 24 hrs
Experimental: as §1, §2, §3, §4, §5, §6, §7

Botrytis cinerea [4] = test: Curative activity: product-soaked discs laid on pathogen lawn on agar; assay type: cell-based; conditions: 0.8%, 24 hrs
Experimental: as §1, §2
(§8) Plates of PDA and NA were inoculated with fungal spores and bacterial cells, respectively, and allowed to grow into a lawn covering the agar surfaces. Three replicates were used for each product and each pH. Following the results from the preliminary tests, pH 4.0 and 7.0 were selected for all further product pH tests.
(§9) When the lawns were well grown and sporulating in the case of the fungal pathogen, five discs soaked with 200 uL of each product (sodium metabisulphite, sodium benzoate, WOB NP1, sodium sulphite, and WOB PH1) at appropriate pH levels were laid onto the sporulating surface or cell lawn surface for the fungal pathogen and the bacterial pathogen, respectively.
(§10) The plates were incubated at ambient temperature (14-25° C.). Inhibition zones were measured at 24 hours, 48 hours and 7 days.
as §5, §6, §7

Erwinia carotovora [5] = test: as above; assay type: cell-based; conditions: 0.8%, 24 hrs
Experimental: as §1, §2, §8, §9, §10, §5, §6, §7

[6] = tank water adjusted to pH 4.0 before product added
[7] = tank water adjusted to pH 5.5 before product added
[8] = tank water adjusted to pH 7.0 before product added
[9] = tank water adjusted to pH 7.5 before product added
[10] = tank water adjusted to pH 8.4 before product added
[11] = Example 5, unadjusted water pH, WOB as liquid formulation

| Compound | pH of water after product added [1, 6] | pH of water after product added [1, 7] | pH of water after product added [1, 8] | pH of water after product added [1, 9] | pH of water after product added [1, 10] | pH after active added in unamended tank water [1] | Preventative activity on the growth of B. cinerea (Botrytis cinerea [2]) | Preventative activity on the growth of E. carotovora (Erwinia carotovora [3]) | Curative activity on the growth of B. cinerea (Botrytis cinerea [4]; Example 4, pH 4.0) | Curative activity on the growth of B. cinerea (Botrytis cinerea [4]; Example 4, pH 7.0) | Curative activity on the growth of B. cinerea (Botrytis cinerea [4]; [11]) | Curative activity on the growth of E. carotovora (Erwinia carotovora [5]; Example 4, pH 7.0) | Curative activity on the growth of E. carotovora (Erwinia carotovora [5]; Example 4, pH 4.0) | Curative activity on the growth of E. carotovora (Erwinia carotovora [5]; [11]) |
| --- | --- | --- | --- | --- | --- | --- | --- | --- | --- | --- | --- | --- | --- | --- |
| O=C([O-])c1ccccc1.[Na+] [Na Benzoate, sodium benzoate] | 6.15 | 6.34 | 6.60 and 6.74 | 6.80 | 6.85 | 4.78 | No obvious effect | No obvious effect | No obvious effect | No effect | No obvious effect | No effect | – | – |
| O=S([O-])S(=O)(=O)[O-].[Na+].[Na+] [Na metabisulphite, sodium metabisulphite] | 3.75 | 5.52 | 6.14 | – | – | 4.74 | No obvious effect | No obvious effect | No effect | – | No obvious effect | – | No effect | No obvious effect |
| O=S([O-])[O-].[Na+].[Na+] [Na sulphite, sodium sulphite] | – | – | 6.78 | 6.78 | 6.99 | 5.24 | – | – | – | No effect | – | – | – | – |
